Data from US11672786B2, “Methods of treating diseases associated with repeat instability” (The Hospital for Sick Children, priority 2016, dated 2023).
Several values for one entry are separate records, joined by “and”; a condition that tells them apart may be missing. Equal values may be shown once.

Legend:
HD fibroblasts (CAG)180 = assay: small-pool PCR across HD repeat tract, HD primary fibroblasts GM09197; assay type: cell-based, human; conditions: 50 uM NA, 40 days
Experimental: (§1) The construction of the HT1080-(CAG)850 cell model was described previously (Sathasivam et al., 1997, Hum. Genet., 99:692-5). Briefly, HT1080 (ATCC) human fibrosarcoma cells were co-transfected with a plasmid (LC15-R) containing 800-850 (CTG)●(CAG) repeats (Nakatani et al., 2005, Nat. Chem. Biol., 1:39-43) and a plasmid encoding PhiC31 integrase. Transfection was performed with a Nucleofector (Lonza, Basel, Switzerland), and stably transfected clones were selected with puromycin. The HT1080-non-transcribing (CAG)850 cell model was established by transfecting a plasmid modified from pLC16 by inserting an additional SV40 polyadenylation signal downstream of the repeats (in addition to the original polyadenylation signals located upstream of the repeats), so that CAG/CTG repeats are floxed by transcription-terminator elements. The AttB-PhiC31 system has been widely used for single copy integration. […] The HT1080 model cells and an HD primary fibroblast cell line, GM09197 (Coriell Biorepository) with a large expanded allele of 180 CAG repeats and a non-expanded allele of 23 repeats (Sathasivam et al., 1997, Hum. Genet., 99:[…]), the HD primary fibroblast cell line, GM02191 (Coreill Biorepository) with an expanded allele of 43 CAG repeats and a non-expanded allele of 19 repeats, were cultured at 37° C. with 5% CO2 in Dulbecco's modified Eagle's medium supplemented with 10% fetal bovine serum and 1% penicillin/streptomycin. Cells were treated with or without continuous exposure to 50-μM NA for 30 days (HT1080 cells) or for 40 days (fibroblast cells). For experiments on non-proliferating cells, HT1080 cells were grown to confluence and then treated for the same period. WST-1 assay was performed according to the manufacturer's instructions (Roche, Basel, Switzerland). All cell lines were tested to be free of Mycoplasma. Three biological replicates were performed for each experiment.
(§2) Genomic DNA was extracted from HT1080-(CAG)850 clones and HD primary fibroblasts using the Gentra Puregene Cell Kit (Qiagen, Valencia, Calif.). The expanded (CTG)●(CAG) repeats were sized by small-pool PCR (sp-PCR) followed by Southern blot as described previously (Sathasivam et al., 1997, Hum. Genet., 99:692-5). For HT1080 models, small-pool PCR (spPCR) was performed with the input of 1.4-1.7 genome equivalents. The repeat size difference in the models is, at most, 3000 base-pairs, therefore, being strictly conservative, a bias toward amplifying the shorter allele can be possible, even under optimized PCR conditions described herein. For HD primary fibroblasts, sp-PCR & Southern blots were performed as described previously with slight modifications (Tome et al., 2013, PLoS Genet., 9:e1003280). Briefly, the PCR primers listed in Table 1 were used, and blots were hybridized with a DIG-labeled (CAG)7 locked nucleic acid probe (Nakamori et al. 2009, Neuromuscul. Disord., 19:759-62). At least 50 alleles were analyzed for each of the three experiments (more than 150 alleles for a total study). Repeat analyses are summarized in Table 2, compiled from complete small-pool-PCR datasets for each repetition of each experiment. For the histograms in FIGS. 4D, 4E, 10, 11, 5B, 5D, 5E, 14 and 15B, the Y-axis, “% of repeat population” was calculated by determining the proportion of >50 individual small-pool PCR reactions across the CAG repeat tract, that harbored a certain size of repeat product with a certain length. Cell clones were grown 30 or 40 days with or without NA (see, for example, Sathasivam et al., 1997, Hum. Genet., 99:692-5). Specifically, the histograms of repeat length distributions were from at least two different cell clones. Length distributions were determined as follows: Small-pool PCR followed by Southern blot for analysis of CAG/CTG repeat length.

[1] = test system: CAG/CTG R-loops processed by neuron-like human SH-SY5Y cell extracts; assay: R-loop processing by SH-SY5Y cell extracts, STRIP assay; assay type: biochemical; conditions: NA 50 μM; p=0.002
Experimental: Double-R-loops were then treated with RNaseA or H (labeled “A” or “H”) and incubated with 50 μM of NA. Reaction products were then resolved on 1% agarose gel. […] Pre-formed double-R-loops were processed by terminally differentiated (retinoic acid) human neuron-like cell extracts (SH-SY5Y) in the absence or presence of NA (50 μM), as described and DNA repeat lengths were assessed as expansions, contractions, or stable, by the STRIP assay. […] Transcription products were isolated, processed and transformed in E. coli cells, previously shown to stably maintain the (CAG)79●(CTG)79 lengths. Plasmids isolated from individual bacterial colonies were digested with restriction enzymes to release the repeat containing fragment, resolved on 4% polyacrylamide gels and scored for instability.
R-loop templates prepared from in vitro transcription and RNase A treatments were incubated with NA and then processed by extracts of HeLa or SH-SY5Y neuroblastoma cells, where the latter were terminally differentiated by retinoic acid, as previously described (Panigrahi et al., 2005, Nat. Struct. & Mol. Biol., 12:654-62). […] Miniprep DNA was analyzed for changes in repeat length by analysis of the repeat-containing fragment on 4% polyacrylamide gels. […]

HD fibroblasts (CAG)43 = assay: small-pool PCR across HD repeat tract, HD primary fibroblasts GM02191; assay type: cell-based, human; conditions: 40 days; for % Contraction / % Expansion / % Unchanged / Average repeat size: 50 uM NA
Experimental: as §1, §2

HT1080-(CAG)850 cells [2] = assay: cell toxicity, WST-1 assay; conditions: treated with NA for 72 hr
Experimental: Scale bar represents 20 μm.
The construction of the HT1080-(CAG)850 cell model was described previously (Sathasivam et al., 1997, Hum. Genet., 99:692-5). Briefly, HT1080 (ATCC) human fibrosarcoma cells were co-transfected with a plasmid (LC15-R) containing 800-850 (CTG)●(CAG) repeats (Nakatani et al., 2005, Nat. Chem. Biol., 1:39-43) and a plasmid encoding PhiC31 integrase. Transfection was performed with a Nucleofector (Lonza, Basel, Switzerland), and stably transfected clones were selected with puromycin. The HT1080-non transcribing (CAG)850 cell model was established by transfecting a plasmid modified from pLC16 by adding a SV40 polyadenylation signal downstream of the repeats, instead of LC15-R. The HT1080-non-transcribing (CAG)850 cell model was established by transfecting a plasmid modified from pLC16 by inserting an additional SV40 polyadenylation signal downstream of the repeats (in addition to the original polyadenylation signals located upstream of the repeats), so that CAG/CTG repeats are floxed by transcription-terminator elements. The AttB-PhiC31 system has been widely used for single copy integration. […]

HT1080-(CAG)850 cells [3] = assay: cellular distribution by confocal microscopy; assay type: cell-based, human
Experimental: (§3) Scale bar represents 20 μm. […] The cell viability was estimated with WST-1 assays. Values represent the means of three independent measures±SD. […] Error bars indicate the SD of triplicate experiments. […] The dashed line indicates the peak CAG size. Allele lengths are grouped in bins spanning 10 repeats. More than 230 alleles were sized per group.
HT1080-(CAG)850 cells were incubated with 50-μM NBD-labeled NA for 48 hr and Cell Light Plasma Membrane-RFP, BacMam 2.0 (Life Technologies, Carlsbad, Calif.), then fixed for 15 min at RT with 4% paraformaldehyde and washed 2 times for 10 min in phosphate buffered saline (PBS). Cells were mounted with Vectashield hard-set mounting media that contains DAPI (Vector Laboratories, Burlingame, Calif.). Fluorescence images were obtained using Olympus FV1000D confocal laser scanning microscope (Olympus, Tokyo, Japan).

HT1080-(CAG)850 cells [4] = assay: growth curves of cells; assay type: cell-based, human; conditions: 50 μM NA
Excerpt: as §3

[5] = single experiments Ex 1-3, cut-off ±10 repeats

## naphthyridine-azaquinolone
HD fibroblasts (CAG)180; Total
  % Contraction: 31.2%
  % Expansion: 13.6%
  % Unchanged: 55.2%
  Average repeat size: 177.5 number of repeats
HD fibroblasts (CAG)180; single experiments Ex 1-3
  % Unchanged: 58.6% and 56.1% and 50.9%
  Average repeat size: 178.5 number of repeats and 176.5 number of repeats and 177.5 number of repeats
HD fibroblasts (CAG)180; [5]
  % Contraction: 28.8% and 30.8% and 34.0%
  % Expansion: 12.6% and 13.1% and 15.1%
[1]
  effect on R-loop processing products (contractions, expansions): significantly increasing the number of contraction products but not expansion products
HD fibroblasts (CAG)43; 50 μM NA, HD disease threshold 35 units
  lowest repeat length reached by contractions: ≥ 20 repeats
HD fibroblasts (CAG)43; Total
  % Contraction: 25.3%
  % Expansion: 4.9%
  % Unchanged: 69.8%
  Average repeat size: 40.7 number of repeats
HD fibroblasts (CAG)43; single experiments Ex 1-3
  % Unchanged: 67.0% and 69.2% and 73.2%
  Average repeat size: 40.6 number of repeats and 40.4 number of repeats and 41.0 number of repeats
HD fibroblasts (CAG)43; [5]
  % Contraction: 28.4% and 25.2% and 22.3%
  % Expansion: 4.6% and 5.6% and 4.5%
HT1080-(CAG)850 cells [2]
  acute cytotoxicity (cell viability, WST-1): without causing acute cytotoxicity
HT1080-(CAG)850 cells [3]
  cell permeability: cell-permeable and can enter the nuclei
HT1080-(CAG)850 cells [4]
  effect on cell proliferation (growth curves): lack of an effect upon cell proliferation
